Activity calls are given as the source filed them. The rule behind the calls is not given here.
Tests used:
[1] = target: Cannabinoid receptor 2 (Homo sapiens) (UniProt P34972); assay: Displacement of [3H]CP-55,940 from recombinant human CB2 receptor expressed in HEK293 cells at >1 uM after 1 hr by scintillation counting method; format: cell-based
[2] = target: T1, Fatty-acid amide hydrolase 1 (Rattus norvegicus, UniProt P97612); assay: Inhibition of rat FAAH using AAMCA as substrate by fluorescence assay
T1 sequence (P97612 whole entry): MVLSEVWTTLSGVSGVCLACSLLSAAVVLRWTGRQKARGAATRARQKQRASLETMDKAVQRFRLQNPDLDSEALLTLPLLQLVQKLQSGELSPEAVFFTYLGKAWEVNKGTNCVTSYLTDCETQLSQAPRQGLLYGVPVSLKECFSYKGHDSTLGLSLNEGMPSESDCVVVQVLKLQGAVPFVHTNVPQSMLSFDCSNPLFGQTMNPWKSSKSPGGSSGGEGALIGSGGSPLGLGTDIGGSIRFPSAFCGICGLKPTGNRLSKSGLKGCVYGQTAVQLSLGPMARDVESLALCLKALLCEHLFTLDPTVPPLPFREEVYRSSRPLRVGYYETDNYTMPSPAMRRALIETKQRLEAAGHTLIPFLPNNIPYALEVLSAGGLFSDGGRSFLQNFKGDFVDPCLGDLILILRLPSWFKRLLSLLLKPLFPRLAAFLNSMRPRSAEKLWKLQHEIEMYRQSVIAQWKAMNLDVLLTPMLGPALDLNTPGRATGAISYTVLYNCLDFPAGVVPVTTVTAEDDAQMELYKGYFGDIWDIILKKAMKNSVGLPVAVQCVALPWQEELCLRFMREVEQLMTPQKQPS

[3] = target: Cannabinoid receptor 2 (Mus musculus) (UniProt P47936); assay: Displacement of [3H]CP-55,940 from recombinant mouse CB2 receptor expressed in HEK293 cells at >1 uM after 1 hr by scintillation counting method; format: cell-based
Sequence of Cannabinoid receptor 2 (Mus musculus) (P47936 whole entry): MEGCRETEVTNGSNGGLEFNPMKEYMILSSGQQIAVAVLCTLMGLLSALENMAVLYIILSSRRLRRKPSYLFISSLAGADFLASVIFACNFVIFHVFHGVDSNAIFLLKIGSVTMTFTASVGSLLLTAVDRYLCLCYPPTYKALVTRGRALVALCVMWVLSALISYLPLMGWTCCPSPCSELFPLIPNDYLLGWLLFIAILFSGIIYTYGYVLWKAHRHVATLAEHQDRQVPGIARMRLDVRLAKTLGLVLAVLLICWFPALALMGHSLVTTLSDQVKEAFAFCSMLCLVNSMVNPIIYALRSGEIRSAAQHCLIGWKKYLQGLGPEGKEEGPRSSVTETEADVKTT

[4] = target: T2, Monoacylglycerol lipase ABHD6 (Homo sapiens) (UniProt Q9BV23); assay: Inhibition of human ABHD6 at >10 uM
T2 sequence (whole entry): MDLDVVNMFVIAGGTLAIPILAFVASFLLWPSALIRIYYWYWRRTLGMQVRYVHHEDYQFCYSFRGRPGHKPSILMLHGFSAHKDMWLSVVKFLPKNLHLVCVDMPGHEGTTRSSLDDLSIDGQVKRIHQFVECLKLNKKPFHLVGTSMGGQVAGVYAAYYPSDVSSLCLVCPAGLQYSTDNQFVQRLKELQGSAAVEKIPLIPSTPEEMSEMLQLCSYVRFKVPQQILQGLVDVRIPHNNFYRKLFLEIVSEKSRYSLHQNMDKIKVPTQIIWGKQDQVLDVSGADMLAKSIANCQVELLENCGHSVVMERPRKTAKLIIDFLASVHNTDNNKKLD

[5] = target: Cannabinoid receptor 1 (Rattus norvegicus, UniProt P20272); assay: Displacement of [3H]CP-55,940 from rat CB1 receptor at >1 uM after 1 hr by scintillation counting method
Sequence of Cannabinoid receptor 1 (P20272 whole entry): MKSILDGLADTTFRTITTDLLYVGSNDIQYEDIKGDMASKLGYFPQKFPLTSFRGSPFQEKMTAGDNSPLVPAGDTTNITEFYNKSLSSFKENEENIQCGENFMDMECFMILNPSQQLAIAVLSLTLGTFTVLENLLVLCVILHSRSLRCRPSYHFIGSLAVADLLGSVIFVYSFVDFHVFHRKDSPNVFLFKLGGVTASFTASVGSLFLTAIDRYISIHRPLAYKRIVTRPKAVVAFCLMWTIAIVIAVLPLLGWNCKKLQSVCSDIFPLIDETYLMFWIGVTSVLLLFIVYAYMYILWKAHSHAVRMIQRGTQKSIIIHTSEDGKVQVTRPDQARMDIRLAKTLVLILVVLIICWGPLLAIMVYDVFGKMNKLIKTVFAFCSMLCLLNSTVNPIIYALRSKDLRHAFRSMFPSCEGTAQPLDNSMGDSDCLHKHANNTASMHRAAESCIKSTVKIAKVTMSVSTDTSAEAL

[6] = Half life in human liver microsomes pretreated with compounds followed by NADPH addition by LC-MS/MS analysis; format: ADME, Microsome
[7] = Mean residence time in CD1 mouse at 2 mg/kg, iv or 10 mg/kg, po; format: ADME, organism-based; details: in vivo
[8] = Half life in rat plasma at 200 uM by HPLC analysis; format: ADME, cell-free
[9] = Drug uptake in CD1 mouse brain at 2 mg/kg, iv or 10 mg/kg, po; format: ADME, organism-based; details: in vivo
[10] = Half life in mouse liver microsomes pretreated with compounds followed by NADPH addition by LC-MS/MS analysis; format: ADME, Microsome
[11] = Half life in mouse plasma at 200 uM by HPLC analysis; format: ADME, cell-free
[12] = Half life in rat liver microsomes pretreated with compounds followed by NADPH addition by LC-MS/MS analysis; format: ADME, Microsome
[13] = test system: Mus musculus; assay: Anti-glaucoma activity in normotensive C57BL/6J mouse assessed as intraocular pressure at 3 mM administered as single topical treatment measured after 28 hrs by tonometry (reference value: […] +/- 1.1 mmHg); format: functional
[14] = Half life in human plasma at 200 uM by HPLC analysis; format: ADME, cell-free
[15] = Oral bioavailability in CD1 mouse at 10 mg/kg; format: ADME, organism-based; details: in vivo

Sequence of Cannabinoid receptor 2 (Homo sapiens) (P34972 whole entry): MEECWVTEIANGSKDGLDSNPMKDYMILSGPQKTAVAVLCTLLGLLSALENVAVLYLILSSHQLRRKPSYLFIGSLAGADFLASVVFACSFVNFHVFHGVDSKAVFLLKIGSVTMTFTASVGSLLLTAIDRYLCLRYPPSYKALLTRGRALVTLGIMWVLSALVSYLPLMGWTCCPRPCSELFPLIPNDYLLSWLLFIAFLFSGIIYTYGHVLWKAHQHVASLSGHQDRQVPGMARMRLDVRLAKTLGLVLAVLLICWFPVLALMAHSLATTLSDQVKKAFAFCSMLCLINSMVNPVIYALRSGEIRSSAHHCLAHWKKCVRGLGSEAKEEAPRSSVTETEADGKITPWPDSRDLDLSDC

Compound | Activity [1] | IC50 [2] [nM] | Activity [3] | inhibition [4] | Activity [5] | t1/2 [6] [h] | MRT [7] [h] | t1/2 [8] [h] | Drug uptake [9] [%] | t1/2 [10] [h] | t1/2 [11] [h] | t1/2 [12] [h] | Activity [13] [mmHg] | t1/2 [14] [h] | bioavailability [15] [%]
CC(C)N1CCN(C(=O)Oc2cccc(C#N)c2)CC1 | inactive | 68 | inactive | inactive | Not Active |  |  |  |  |  |  |  |  |  | 
N#Cc1cccc(OC(=O)N2CCC(C(c3ccc(Cl)cc3)c3ccc(Cl)cc3)CC2)c1 | inactive | > 1000 | inactive | inactive | Not Active |  |  |  |  |  |  |  |  |  | 
N#Cc1cccc(OC(=O)N2CCC(S(=O)(=O)C(c3ccccc3)c3ccccc3)CC2)c1 | inactive |  | inactive | inactive | Not Active |  |  |  |  |  |  |  |  |  | 
N#Cc1cccc(OC(=O)N2CCC(OC(c3ccccc3)c3ccccc3)CC2)c1 | inactive | > 1000 | inactive | inactive | Not Active |  |  |  |  |  |  |  |  |  | 
N#Cc1cccc(OC(=O)N2CCN(C3CC3)CC2)c1 | inactive | 63 | inactive | inactive | Not Active |  |  |  |  |  |  |  |  |  | 
N#Cc1cc(F)cc(OC(=O)N2CCC(C(c3ccccc3)c3ccccc3)CC2)c1 | inactive | > 1000 | inactive | inactive | Not Active |  |  |  |  |  |  |  |  |  | 
N#Cc1ccnc(OC(=O)N2CCC(C(c3ccccc3)c3ccccc3)CC2)c1 | inactive | > 1000 | inactive | inactive | Not Active |  |  |  |  |  |  |  |  |  | 
N#Cc1cccc(OC(=O)N2CCN(C(c3ccccc3)c3cccnc3)CC2)c1 (stereo not drawn) | inactive | > 1000 | inactive | inactive | Not Active |  |  |  |  |  |  |  |  |  | 
N#Cc1ccc(F)c(OC(=O)N2CCC(C(c3ccccc3)c3ccccc3)CC2)c1 | inactive | > 1000 | inactive | inactive | Not Active |  |  |  |  |  |  |  |  |  | 
N#Cc1cccc(OC(=O)N2CCC(C(c3ccccc3)c3ccccc3)CC2)c1 | inactive | > 1000 | inactive | inactive | Not Active | 2.03 | 6 | > 2 | 65 | 0.333 | > 2 | 0.717 | 19.9 | > 2 | 15
O=C(Oc1ccccc1)N1CCN(C(c2ccccc2)c2ccccc2)CC1 | inactive |  | inactive | inactive | Not Active |  |  |  |  |  |  |  |  |  | 
N#Cc1cccc(OC(=O)N2CCC(C(c3ccccc3)c3ccccc3)CC2)n1 | inactive | > 1000 | inactive | inactive | Not Active |  |  |  |  |  |  |  |  |  | 
N#Cc1cccc(OC(=O)N2CCN(C3c4ccccc4-c4ccccc43)CC2)c1 | inactive | > 1000 | inactive | inactive | Not Active |  |  |  |  |  |  |  |  |  | 
N#Cc1cc(O)cc(OC(=O)N2CCC(C(c3ccccc3)c3ccccc3)CC2)c1 | inactive | > 1000 | inactive | inactive | Not Active |  |  |  |  |  |  |  |  |  | 
N#Cc1cccc(OC(=O)N2CCC(NC(c3ccccc3)c3ccccc3)CC2)c1 | inactive | > 1000 | inactive | inactive | Not Active |  |  |  |  |  |  |  |  |  | 
N#Cc1cccc(OC(=O)N2CCN(C(c3ccc(F)cc3)c3ccc(F)cc3)CC2)c1 | inactive | > 1000 | inactive | inactive | Not Active |  |  |  |  |  |  |  |  |  | 
COc1cc(C#N)cc(OC(=O)N2CCC(C(c3ccccc3)c3ccccc3)CC2)c1 | inactive | > 1000 | inactive | inactive | Not Active |  |  |  |  |  |  |  |  |  | 
N#Cc1cccc(OC(=O)N2CCN(C(c3ccccc3)c3ccccc3)CC2)c1 | inactive | > 1000 | inactive | inactive | Not Active |  |  |  |  |  |  |  |  |  | 
Cc1cc(C#N)cc(OC(=O)N2CCC(C(c3ccccc3)c3ccccc3)CC2)c1 | inactive | > 1000 | inactive | inactive | Not Active |  |  |  |  |  |  |  |  |  | 
N#Cc1cccc(OC(=O)N2CCN(C3CCCCC3)CC2)c1 | inactive | 67 | inactive | inactive | Not Active |  |  |  |  |  |  |  |  |  | 
